Measured values reported in patent US11661426B2, “Imidazole-containing inhibitors of ALK2 kinase” (BioCryst Pharmaceuticals, Inc., priority 2017, dated 2023).
pIC50: −log10 of the molar value.

The compounds below were run against ALK2 (Homo sapiens (Human), UniProt Q04771) (assay: ALK2 inhibition, LanthaScreen Eu Kinase Binding Assay (ThermoFisher Scientific / Life Technologies)). Details: read-out: Measured Ki (IC50) Value for Compounds: IC50.
Description: Biochemical assays to measure the inhibitory effects of the compounds were performed by ThermoFisher Scientific (Life Technologies). ALK2 inhibition was tested using LanthaScreen™ Eu Kinase Binding Assay screening protocol.

Chain of ALK2 (Q04771 21-509): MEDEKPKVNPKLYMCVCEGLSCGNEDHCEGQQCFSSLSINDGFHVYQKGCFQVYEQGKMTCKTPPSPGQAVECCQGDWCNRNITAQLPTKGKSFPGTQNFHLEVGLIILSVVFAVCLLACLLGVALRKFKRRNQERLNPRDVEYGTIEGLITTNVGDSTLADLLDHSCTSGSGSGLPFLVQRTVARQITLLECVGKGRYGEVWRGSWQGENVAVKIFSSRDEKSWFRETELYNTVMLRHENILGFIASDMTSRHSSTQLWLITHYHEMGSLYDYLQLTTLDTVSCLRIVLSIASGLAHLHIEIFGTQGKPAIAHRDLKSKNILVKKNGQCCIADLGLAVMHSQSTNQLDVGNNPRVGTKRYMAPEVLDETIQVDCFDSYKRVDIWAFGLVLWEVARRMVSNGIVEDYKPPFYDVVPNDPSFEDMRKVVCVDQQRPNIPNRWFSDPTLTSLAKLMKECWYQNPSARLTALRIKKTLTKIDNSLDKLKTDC

Row | pIC50 | Structure (SMILES)
1 | > 7.00 | COc1cc(-n2cnc(Nc3nc(N4CCC[C@H]4C(N)=O)nc4c3CCN(Cc3ccccc3)C4)c2)cc(OC)c1OC [Compound 154a, (S)-1-(7-benzyl-4-((1-(3,4,5-trimethoxyphenyl)-1H-imidazol-4-yl)amino)-5,6,7,8-tetrahydropyrido[3,4-d]pyrimidin-2-yl)pyrrolidine-2-carboxamide]
2 | > 7.00 | COc1cc(-n2cnc(Nc3nc(N4CCC[C@H]4C(N)=O)nc4sccc34)c2)cc(OC)c1OC [Compound 155a, (S)-1-(4-((1-(3,4,5-trimethoxyphenyl)-1H-imidazol-4-yl)amino)thieno[2,3-d]pyrimidin-2-yl)pyrrolidine-2-carboxamide]
3 | > 7.00 | COc1cc(-n2cnc(Nc3nc(N4CCCC4)nn4cccc34)c2)cc(OC)c1OC [Compound 156a, 2-(pyrrolidin-1-yl)-N-(1-(3,4,5-trimethoxyphenyl)-1H-imidazol-4-yl)pyrrolo[2,1-f][1,2,4]triazin-4-amine]
4 | > 7.00 | COc1cc(-n2cnc(Nc3nc(-c4ccccc4C(N)=O)nc4sccc34)c2)cc(OC)c1OC [Compound 157a, 2-(4-((1-(3,4,5-trimethoxyphenyl)-1H-imidazol-4-yl)amino)thieno[2,3-d]pyrimidin-2-yl)benzamide]
5 | > 7.00 | COc1cc(-n2cnc(Nc3nc(N4CCC[C@H]4C(N)=O)nc4scnc34)c2)cc(OC)c1OC [Compound 158b, (S)-1-(7-((1-(3,4,5-trimethoxyphenyl)-1H-imidazol-4-yl)amino)thiazolo[5,4-d]pyrimidin-5-yl)pyrrolidine-2-carboxamide]
6 | < 6.00 | COc1cc(-n2cnc(Nc3nc(N4CCC[C@H]4CO)c4ccn(S(=O)(=O)c5ccc(C)cc5)c4n3)c2)cc(OC)c1OC [Compound 159b, (S)-(1-(7-tosyl-2-((1-(3,4,5-trimethoxyphenyl)-1H-imidazol-4-yl)amino)-7H-pyrrolo[2,3-d]pyrimidin-4-yl)pyrrolidin-2-yl)methanol]
7 | > 7.00 | COc1cc(-n2cnc(Nc3nc(N4CCC[C@H]4CO)c4cc[nH]c4n3)c2)cc(OC)c1OC [Compound 159c, (S)-(1-(2-((1-(3,4,5-trimethoxyphenyl)-1H-imidazol-4-yl)amino)-7H-pyrrolo[2,3-d]pyrimidin-4-yl)pyrrolidin-2-yl)methanol]
8 | < 6.00 | COc1cc(-n2cnc(Nc3nc(N4CCC[C@H]4CO)nc4ccn(S(=O)(=O)c5ccc(C)cc5)c34)c2)cc(OC)c1OC [Compound 160c, (S)-(1-(5-tosyl-4-((1-(3,4,5-trimethoxyphenyl)-1H-imidazol-4-yl)amino)-5H-pyrrolo[3,2-d]pyrimidin-2-yl)pyrrolidin-2-yl)methanol]
9 | > 7.00 | COc1cc(-n2cnc(Nc3nc(N4CCC[C@H]4CO)nc4cc[nH]c34)c2)cc(OC)c1OC [Compound 160d, (S)-(1-(4-((1-(3,4,5-trimethoxyphenyl)-1H-imidazol-4-yl)amino)-5H-pyrrolo[3,2-d]pyrimidin-2-yl)pyrrolidin-2-yl)methanol]
10 | 6.00 to 7.00 | COc1cc(-n2cnc(Nc3nc(N4CCC[C@H]4C(N)=O)nc4cccnc34)c2)cc(OC)c1OC [Compound 161a, (S)-1-(4-((1-(3,4,5-trimethoxyphenyl)-1H-imidazol-4-yl)amino)pyrido[3,2-d]pyrimidin-2-yl)pyrrolidine-2-carboxamide]
11 | 6.00 to 7.00 | COc1cc(-n2cnc(Nc3nc(N4CCC[C@H]4C(N)=O)nc4ccn(S(=O)(=O)c5ccc(C)cc5)c34)c2)cc(OC)c1OC [Compound 162a, (S)-1-(5-tosyl-4-((1-(3,4,5-trimethoxyphenyl)-1H-imidazol-4-yl)amino)-5H-pyrrolo[3,2-d]pyrimidin-2-yl)pyrrolidine-2-carboxamide]
12 | > 7.00 | COc1cc(-n2cnc(Nc3nc(N4CCC[C@H]4C(N)=O)nc4cc[nH]c34)c2)cc(OC)c1OC [Compound 162b, (S)-1-(4-((1-(3,4,5-trimethoxyphenyl)-1H-imidazol-4-yl)amino)-5H-pyrrolo[3,2-d]pyrimidin-2-yl)pyrrolidine-2-carboxamide]
13 | 6.00 to 7.00 | COc1cc(-n2cnc(Nc3nc(N4CCCC4)nc4c3ccn4S(=O)(=O)c3ccc(C)cc3)c2)cc(OC)c1OC [Compound 163a, 2-(pyrrolidin-1-yl)-7-tosyl-N-(1-(3,4,5-trimethoxyphenyl)-1H-imidazol-4-yl)-7H-pyrrolo[2,3-d]pyrimidin-4-amine]
14 | > 7.00 | COc1cc(-n2cnc(Nc3nc(N4CCC[C@H]4CO)nc4scnc34)c2)cc(OC)c1OC [Compound 164a, (S)-(1-(7-((1-(3,4,5-trimethoxyphenyl)-1H-imidazol-4-yl)amino)thiazolo[5,4-d]pyrimidin-5-yl)pyrrolidin-2-yl)methanol]
15 | > 7.00 | COc1cc(-n2cnc(Nc3nc4c(c(N5CCC[C@H]5CO)n3)CCN(Cc3ccccc3)C4)c2)cc(OC)c1OC [Compound 165b, (S)-(1-(7-benzyl-2-((1-(3,4,5-trimethoxyphenyl)-1H-imidazol-4-yl)amino)-5,6,7,8-tetrahydropyrido[3,4-d]pyrimidin-4-yl)pyrrolidin-2-yl)methanol]
16 | > 7.00 | COc1cc(-n2cnc(Nc3nc4c(c(N5CCC[C@H]5C(N)=O)n3)CCN(Cc3ccccc3)C4)c2)cc(OC)c1OC [Compound 166b, (S)-1-(7-benzyl-2-((1-(3,4,5-trimethoxyphenyl)-1H-imidazol-4-yl)amino)-5,6,7,8-tetrahydropyrido[3,4-d]pyrimidin-4-yl)pyrrolidine-2-carboxamide]
17 | < 6.00 | COc1cc(-n2cnc(Nc3nc(N4CCC[C@H]4CO)nn4cccc34)c2)cc(C#N)c1OC [Compound 167f, (S)-5-(4-((2-(2-(hydroxymethyl)pyrrolidin-1-yl)pyrrolo[2,1-f][1,2,4]triazin-4-yl)amino)-1H-imidazol-1-yl)-2,3-dimethoxybenzonitrile]
18 | 6.00 to 7.00 | COc1cc(-n2cnc(Nc3nc(N4CCCC4)c4cccn4n3)c2)cc(OC)c1OC [Compound 168b, 4-(pyrrolidin-1-yl)-N-(1-(3,4,5-trimethoxyphenyl)-1H-imidazol-4-yl)pyrrolo[2,1-f][1,2,4]triazin-2-amine]
19 | > 7.00 | COc1cc(-n2cnc(Nc3nc(N4CCC[C@H]4CO)nc4ncccc34)c2)cc(OC)c1OC [Compound 169c, (S)-(1-(4-((1-(3,4,5-trimethoxyphenyl)-1H-imidazol-4-yl)amino)pyrido[2,3-d]pyrimidin-2-yl)pyrrolidin-2-yl)methanol]
20 | > 7.00 | COc1cc(-n2cnc(Nc3nc(N4CCC[C@H]4C(N)=O)nc4ncccc34)c2)cc(OC)c1OC [Compound 170a, (S)-1-(4-((1-(3,4,5-trimethoxyphenyl)-1H-imidazol-4-yl)amino)pyrido[2,3-d]pyrimidin-2-yl)pyrrolidine-2-carboxamide]
21 | > 7.00 | COc1cc(-n2cnc(Nc3nc(N4CCC[C@H]4C(N)=O)nc4cc(OC(C)C)ccc34)c2)cc(OC)c1OC [Compound 171a, (S)-1-(7-isopropoxy-4-((1-(3,4,5-trimethoxyphenyl)-1H-imidazol-4-yl)amino)quinazolin-2-yl)pyrrolidine-2-carboxamide]
22 | 6.00 to 7.00 | OC[C@@H]1CCCN1c1nc(Nc2cn(-c3ccccc3)cn2)nn2cccc12 [Compound 172a, (S)-(1-(2-((1-phenyl-1H-imidazol-4-yl)amino)pyrrolo[2,1-f][1,2,4]triazin-4-yl)pyrrolidin-2-yl)methanol]
